Assay results reported in patent publication US8257749B2, “Systems providing at least pesticidal activity” (Biolargo Life Technologies, Incorporated, priority 2007, dated 2012).

Columns and labels:
enterococci [1] = test: iodine wash of natural Santa Monica beach soil sample; type: cell-based; settings: started at 1100 MPN, wash samples greater than 10 parts per million, all of five consecutive washes
Experimental: In a first experiment, a natural sample from Santa Monica beach was user. This soil sample was taken from an area close to a storm drain. Concentrations started at 1100 MPN enterococci per 100 gram sediment were used. Wash samples having a concentration of greater than 10 parts per million were used on the soil samples. Enterocci concentrations approached zero for all of five consecutive washes. A longer term experiment was then performed with sand dosed with a pure culture of enterococci, the >10 ppm iodine solution imbibed in the soil, and then autoclaving. The bacterial level started at 1050 MPN/100 g, and went to zero immediately upon treatment. This was clearly evidenced in five washes (all zero). Two samples were treated with >10 ppm iodine solutions and left to sit on the roof for several days. The bacterial levels were approximately zero at the end of the experiment. Samples that were imbibed with the >10 ppm solution and the sand raked, had bacterial levels that decreased in concentration during the days, and rebounded at night for two nights, and then ended up at zero, indicating effectiveness of the solution, and a benefit to combination of the solution with heat and/or light. The undisturbed controls in both dark and light ended up with countable bacteria at the end. […]

enterococci [2] = test: longer term experiment, sand dosed with pure culture of enterococci and imbibed with iodine solution; type: cell-based
Experimental: In a first experiment, a natural sample from Santa Monica beach was user. This soil sample was taken from an area close to a storm drain. Concentrations started at 1100 MPN enterococci per 100 gram sediment were used. Wash samples having a concentration of greater than 10 parts per million were used on the soil samples. Enterocci concentrations approached zero for all of five consecutive washes. A longer term experiment was then performed with sand dosed with a pure culture of enterococci, the >10 ppm iodine solution imbibed in the soil, and then autoclaving. The bacterial level started at 1050 MPN/100 g, and went to zero immediately upon treatment. This was clearly evidenced in five washes (all zero). Two samples were treated with >10 ppm iodine solutions and left to sit on the roof for several days. The bacterial levels were approximately zero at the end of the experiment. Samples that were imbibed with the >10 ppm solution and the sand raked, had bacterial levels that decreased in concentration during the days, and rebounded at night for two nights, and then ended up at zero, indicating effectiveness of the solution, and a benefit to combination of the solution with heat and/or light. The undisturbed controls in both dark and light ended up with countable bacteria at the end.
In a first experiment showing the efficacy of the iodine treatment on bacteria in soil, a natural sample from Santa Monica beach was user. This soil sample was taken from an area close to a storm drain. Concentrations started at 1100 MPN enterococci per 100 gram sediment were used. Wash samples having a concentration of greater than 10 parts per million were used on the soil samples. Enterocci concentrations approached zero for all of five consecutive washes. A longer term experiment was then performed with sand dosed with a pure culture of enterococci, the >10 ppm iodine solution imbibed in the soil, and then autoclaving. The bacterial level started at 1050 MPN/100 g, and went to zero immediately upon treatment. This was clearly evidenced in five washes (all zero). […]

II [iodine solution, molecular iodine]
Enterocci concentrations after wash (enterococci [1]): approximately zero
bacterial levels at end, imbibed and raked sand (enterococci [2]; >10 ppm solution, sand raked, decreased during the days, rebounded at night for two nights): zero
bacterial level immediately upon treatment (enterococci [2]; sand dosed with pure culture, started at 1050 MPN/100 g, >10 ppm iodine solution imbibed, five washes (all zero)): zero
bacterial levels at the end of the experiment (enterococci [2]; two samples treated with >10 ppm iodine solutions, left to sit on the roof for several days): approximately zero
